In paper PMC11532494 (Nature Communications, 2024):

Experiments:
[1] = molecular target: PsApaH_(1-342) (4) (Pseudomonas sp.); assay: crystal structure
BsAcuC (2c) [2] = molecular target: T1, BsAcuC (2c) (Bacillus subtilis, UniProt P39067); assay: Dose-response inhibition assay; format: biochemical; conditions: dose-response inhibition assay
T1 construct: made in house; host or cells: E. coli BL21 (DE3)
T1 sequence (P39067 1-387): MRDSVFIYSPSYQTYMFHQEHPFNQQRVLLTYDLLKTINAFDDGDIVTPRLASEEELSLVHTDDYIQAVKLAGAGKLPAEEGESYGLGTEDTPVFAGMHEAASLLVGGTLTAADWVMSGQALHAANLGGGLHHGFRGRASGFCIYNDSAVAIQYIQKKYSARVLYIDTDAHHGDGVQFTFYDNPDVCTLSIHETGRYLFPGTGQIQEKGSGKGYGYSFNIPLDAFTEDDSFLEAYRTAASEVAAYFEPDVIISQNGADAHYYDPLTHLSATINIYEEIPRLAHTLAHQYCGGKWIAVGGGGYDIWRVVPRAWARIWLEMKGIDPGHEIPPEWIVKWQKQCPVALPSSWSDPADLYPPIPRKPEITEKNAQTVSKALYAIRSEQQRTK
From the text: Data was transformed to relative enzyme activity (%) compared to control wells without inhibitor, and fitted to sigmoidal functions with variable slope (Eqs. 3, 4 parameters, h: Hill slope) to afford IC50 values. Assuming fast-on/fast-off competitive inhibition, the Cheng–Prusoff equation (Eq. 4) was employed to transform IC50 data into inhibitory constants (Ki), with KM values as determined previously.3 Res.activity=Res.activitybottom+Res.activitytop−Res.activitybottom/1+10^(logIC50−logI)h 4 Ki=IC50/1+[S]/KM

KpHdaH (1b) = KpHdaH (1b) (Klebsiella pneumoniae, UniProt A0A377Z5F6); assay: biochemical; conditions: for IC50: 15 nM enzyme, 60 min, 37 °C
LcApaH (3) = LcApaH (3) (Legionella cherrii, UniProt A0A0W0SGS1); assay: biochemical; conditions: for IC50: 0.5 nM enzyme, 30 min, 37 °C
LpApaH (3) = LpApaH (3) (Legionella pneumophila, UniProt A0A2S6EWV0); assay: biochemical
RwDmhA (1b) = RwDmhA (1b) (Rhizorhabdus wittichii, UniProt A0A067XIQ6); assay: biochemical; conditions: for IC50: 30 nM enzyme, 60 min, 37 °C
BsAcuC (2c) [3] = molecular target: T1, BsAcuC (2c); assay: Inhibitor screening assay (10 µM or 1 µM); format: biochemical
From the text: Data was transformed to relative enzyme activity (%) compared to control wells without inhibitors.

crystal structure = molecular target: the molecule itself; assay: crystal structure
[4] = molecular target: DmhA (dimethoate hydrolase) of Rhizorhabdus wittichii (Rhizorhabdus wittichii); assay: enzyme kinetics with substrate in
[5] = molecular target: Pseudomonas sp. acetylpolyamine amidohydrolase ApaH (Pseudomonas sp.); assay: enzyme kinetics with substrate in
[6] = molecular target: T2, Legionella cherrii acetyl-polyamine aminohydrolase (Legionella cherrii); assay: enzyme kinetics with substrate inhibition (Fluor-de-Lys assay)
T2 sequence: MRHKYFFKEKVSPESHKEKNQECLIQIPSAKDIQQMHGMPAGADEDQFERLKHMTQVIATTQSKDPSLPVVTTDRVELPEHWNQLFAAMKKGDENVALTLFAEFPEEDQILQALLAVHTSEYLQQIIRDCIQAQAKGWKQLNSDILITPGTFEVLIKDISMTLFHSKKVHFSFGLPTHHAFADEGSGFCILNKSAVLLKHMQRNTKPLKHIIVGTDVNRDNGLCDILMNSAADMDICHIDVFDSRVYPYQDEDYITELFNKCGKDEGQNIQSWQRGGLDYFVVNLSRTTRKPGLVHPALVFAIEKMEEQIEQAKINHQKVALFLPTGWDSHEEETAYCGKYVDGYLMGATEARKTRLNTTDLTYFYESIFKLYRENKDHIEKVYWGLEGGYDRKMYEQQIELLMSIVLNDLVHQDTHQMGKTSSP

[7] = molecular target: T3, Legionella pneumophila acetyl-polyamine aminohydrolase (Legionella pneumophila); assay: as above
T3 sequence: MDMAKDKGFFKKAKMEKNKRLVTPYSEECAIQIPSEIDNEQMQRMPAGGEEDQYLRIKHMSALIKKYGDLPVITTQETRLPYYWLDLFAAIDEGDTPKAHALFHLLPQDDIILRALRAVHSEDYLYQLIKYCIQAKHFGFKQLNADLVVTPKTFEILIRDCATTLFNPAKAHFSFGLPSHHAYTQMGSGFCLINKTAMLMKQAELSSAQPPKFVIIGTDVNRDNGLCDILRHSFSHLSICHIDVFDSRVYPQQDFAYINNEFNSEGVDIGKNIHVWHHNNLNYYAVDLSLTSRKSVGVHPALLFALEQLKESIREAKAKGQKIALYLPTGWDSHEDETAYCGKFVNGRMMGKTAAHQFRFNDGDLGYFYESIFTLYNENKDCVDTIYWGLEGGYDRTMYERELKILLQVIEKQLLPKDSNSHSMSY

[8] = Log[IC50(M)], decadic log of IC50, 60 µM QPKKac

PsApaH_(1-342) (4) (domain or fragment)
stoichiometry N [1]: 2

O=C(CCCCCCC(=O)Nc1ccccc1)NO [SAHA, suberoylanilide hydroxamic acid]
inhibition of BsAcuC (2c), in words (BsAcuC (2c) [2]): not detecting any inhibition | IC50 (KpHdaH (1b); IC50, 60 µM QPKKac): 9.71e-08 M | Ki (KpHdaH (1b); Ki, calculated using the Cheng–Prusoff equation, 60 µM QPKKac): 22.4 nM | IC50 (KpHdaH (1b); [8]): 9.77e-08 M | IC50 (LcApaH (3); IC50, 40 µM LGKac): 8.09e-07 M | Ki (LcApaH (3); Ki, calculated using the Cheng–Prusoff equation, 40 µM LGKac): 307 nM | IC50 (LcApaH (3); Log[IC50(M)], decadic log of IC50, 40 µM LGKac): 8.13e-07 M | IC50 (LpApaH (3); IC50): 6.69e-07 M | Ki (LpApaH (3); Ki): 230 nM | IC50 (LpApaH (3); Log[IC50(M)]): 6.61e-07 M | Ki (RwDmhA (1b)): 41.6 nM | IC50 (RwDmhA (1b); IC50, 60 µM QPKKac): 1.01e-07 M | IC50 (RwDmhA (1b); [8]): 1e-07 M | remaining activity at 1 µM (BsAcuC (2c) [3]; 1 µM inhibitor, mean of n = 2, 40 µM LGKac): 84.7% | remaining activity at 1 µM (BsAcuC (2c) [3]; 1 µM inhibitor, single measurements (two columns), 40 µM LGKac, 60 min, 37 °C): 83.2% | remaining activity at 10 µM (BsAcuC (2c) [3]; 10 µM inhibitor, mean of n = 2, 40 µM LGKac): 60.6% | remaining activity at 10 µM (BsAcuC (2c) [3]; 10 µM inhibitor, single measurements (two columns), 40 µM LGKac, 60 min, 37 °C): 56.2% | remaining activity at 1 µM (BsAcuC (2c) [3]; BsAcuC (2c), inhibitor 1 µM, individual replicates): 83.2% | remaining activity at 1 µM (BsAcuC (2c) [3]; BsAcuC (2c), inhibitor 1 µM, mean): 84.7% | remaining activity at 10 µM (BsAcuC (2c) [3]; BsAcuC (2c), inhibitor 10 µM, individual replicates): 56.2% | remaining activity at 10 µM (BsAcuC (2c) [3]; BsAcuC (2c), inhibitor 10 µM, mean): 60.6% | inhibition of BsAcuC (2c) in the initial screen, in words (BsAcuC (2c) [3]; pre-screening at 10 µM or 1 µM inhibitor): only weakly inhibited

B1: DmhA (dimethoate hydrolase) of Rhizorhabdus wittichii (enzyme)
chain: MARTGFYTDERTFWHATGMQALFLPVGDWVQPPNGTAGADTPDSKRRLLNLAHASGLIRKLTLPEAIPATVEDVCRVHPRDYIDRFKATSDAGGGDLGHLAPFSKGGYEIAMLSCGLAIAAVDDVLSGKVDNAYALCRPAGHHCLADTPMGFCLLANIPIAIEAAKARHGISRVAVVDWDVHHGNGTQSIFYDRADVLTISIHQDRCFPPGYSGAEDRGEGAGLGYNLNVPLPAGAGHDAYVQAFDDIVVPALDDFKPDLIIVASGLDANSVDPLARMLLHSESYRLLTQKMLDAAARLCGGKLVVVHEGGYAEAYVPFCGHALLEALSGERTAVVDPVLEMAEAWQPGPEAAAFHRQWIDRLVADLGK
notes: also called RwDmhA (1b); RwDmhA
stoichiometry N (crystal structure): 4

B2: p53-peptide QPKKac (peptide)
peptide: QPKK
Ki [4]: 154 µM | Ki [5]: 122 µM | Ki [6]: 13 µM | Ki [7]: 44 µM

B3: Klebsiella pneumoniae HdaH (enzyme, UniProt A0A377Z5F6 1-371, looked up)
chain: MKRKTGFFFDERCFWHSTGLHAVTLPVGGWVQPPAGGGHAESPETKRRMKNLMDVSGLTPQLALRSAAPASLEDLRRIHPDSYLERFKAISDNGGGMLGKEAPLGPGSYEIACLSAGLACAAVEAVLKGELDNAYSLSRPPGHHCLPDQSMGFCFLANIPIAVERAKAQLGLGKVAIIDWDVHHGNGTQHIYLQRDDVLTISLHQDGCFPPGYAGEDDRGVGAGEGYNINIPLLAGAGDDSWRYALETIVIPALARFEPELIIIACGYDANAMDPLARMQLHSDSFRAMTEQVQQAADRLCGGKLVMVHEGGYAESYVPFCGLAVMEALSGIRTEVQDPLLEFIQQQQPRATFAQFQRQAIDRLAQQFGLQ
notes: also called KpHdaH (1b); KpHdaH
stoichiometry N (crystal structure): 4
